The record followed here is US20240270809A1, “ORAL GLP RECEPTOR AGONISTS” (priority 2020, published 2024).

The target in test [1] is T1, human GLP1 receptor (Homo sapiens, UniProt P43220).
T1 construct: expressed in transfected cells; host or cells: HEK cells, BacMam virus transduction
The test is described as follows: cAMP accumulation assay, functional agonism of human GLP1 receptor. Format: cell-based. Conditions: HEK cells infected with human GLP1 receptor BacMam virus, HTRF cAMP; for Emax: HEK293, read-out: Human GLP-1R agonist cAMP Emax; for EC50: read-out: Human GLP-1R agonist cAMP pEC50 (converted). On the procedure:
(§1) CAMP production upon agonist stimulation of human GLP2 or GLP1 receptor was assessed utilizing HiRange cAMP kit (Cisbio). In brief, HEK cells were infected with either human GLP2 or GLP1 receptor BacMam virus for 24 hours and frozen for later use in the assay. […] Cells were prepared in the assay buffer (HBSS (Lonza) supplemented with 0.5 mM IBMX (Tocris)). After 45 min incubation at 37° C., the reaction was stopped by addition of the HTRF detection reagents in the lysis buffer provided in the kit.

The target of test [2] is T2, human GLP2 receptor (Homo sapiens, UniProt O95838).
T2 construct: expressed in transfected cells; host or cells: HEK cells, BacMam virus transduction
T2 sequence (O95838 1-553): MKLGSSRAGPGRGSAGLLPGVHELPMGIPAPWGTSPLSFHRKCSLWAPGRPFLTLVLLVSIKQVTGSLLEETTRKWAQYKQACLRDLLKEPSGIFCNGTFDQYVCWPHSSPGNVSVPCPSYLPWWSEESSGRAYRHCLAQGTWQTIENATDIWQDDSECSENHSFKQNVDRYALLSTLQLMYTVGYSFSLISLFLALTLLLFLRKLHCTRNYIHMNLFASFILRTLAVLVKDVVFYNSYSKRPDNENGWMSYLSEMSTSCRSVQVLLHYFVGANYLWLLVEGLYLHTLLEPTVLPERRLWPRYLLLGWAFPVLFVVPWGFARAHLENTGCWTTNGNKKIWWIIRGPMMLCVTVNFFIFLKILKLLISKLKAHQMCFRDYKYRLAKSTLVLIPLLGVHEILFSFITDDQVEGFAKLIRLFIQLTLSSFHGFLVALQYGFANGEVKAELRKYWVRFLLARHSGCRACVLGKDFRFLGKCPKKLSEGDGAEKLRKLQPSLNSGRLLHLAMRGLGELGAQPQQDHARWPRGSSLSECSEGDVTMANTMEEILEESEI
The test is described as follows: cAMP accumulation assay, functional agonism of human GLP2 receptor. The format is cell-based. The conditions noted are these: HEK cells infected with human GLP2 receptor BacMam virus, HTRF cAMP; for Emax: HEK293, read-out: Human GLP-2R agonist cAMP Emax; for EC50: read-out: Human GLP-2R agonist cAMP pEC50 (converted). The procedure:
as §1

Positions of bridges follow the written chain, without caps; N, C: chain ends. Non-standard residues stand in square brackets, D forms with d. Residues, ends and D or L forms follow the SMILES beside them. *: point of attachment. Malonyl(2,2-Me2,histaminyl) = CC(C)(C(=O)NCCc1cnc[nH]1)C(=O)*; Ala(1H-tetrazol-5-yl) = N[C@@H](Cc1nnn[nH]1)C(=O)O; αMePhe(2-F) = C[C@](N)(Cc1ccccc1F)C(=O)O; αMeL = CC(C)C[C@](C)(N)C(=O)O; Nle = CCCC[C@H](N)C(=O)O; Aib = CC(C)(N)C(=O)O; Alloc = C=CCOC(=O)*

T1 sequence (P43220 24-463): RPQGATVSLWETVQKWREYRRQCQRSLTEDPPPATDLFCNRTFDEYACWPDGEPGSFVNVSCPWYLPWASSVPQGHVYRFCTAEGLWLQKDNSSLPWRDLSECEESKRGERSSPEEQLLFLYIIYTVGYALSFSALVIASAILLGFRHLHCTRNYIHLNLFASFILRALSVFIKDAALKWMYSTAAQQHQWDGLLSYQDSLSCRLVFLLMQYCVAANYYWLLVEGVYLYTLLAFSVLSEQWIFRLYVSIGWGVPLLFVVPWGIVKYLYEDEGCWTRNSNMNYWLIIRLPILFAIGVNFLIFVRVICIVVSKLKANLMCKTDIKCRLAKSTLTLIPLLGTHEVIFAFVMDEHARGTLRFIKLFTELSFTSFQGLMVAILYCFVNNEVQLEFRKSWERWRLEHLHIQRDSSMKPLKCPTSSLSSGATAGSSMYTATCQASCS

Consider `CCCC[C@H](NC(=O)[C@H](CCC(=O)O)NC(=O)[C@@H]1CC(=O)NCCCC[C@H](NC(=O)[C@H](CC(=O)O)NC(=O)C(C)(C)NC(=O)[C@@H](N)Cc2c[nH]cn2)C(=O)N[C@@H](CO)C(=O)N[C@@H](Cc2ccccc2)C(=O)N[C@@H](CO)C(=O)N1)C(=O)N[C@H](Cc1ccccc1)C(=O)N[C@H]1CCC(=O)NCCCC[C@@H](C(=O)N[C@@H](CCCCN)C(=O)N[C@@H](C)C(=O)N[C@@H](C)C(=O)NC(C)(C)C(=O)N[C@@H](CC(=O)O)C(=O)N[C@@H](Cc2ccccc2)C(=O)N[C@H](C(=O)N[C@H]2CCC(=O)NCCCC[C@@H](C(=O)N[C@H](C(=O)N[C@@H](CCCCN)C(N)=O)[C@@H](C)O)NC(=O)[C@H]([C@@H](C)CC)NC(=O)[C@H](CC(C)C)NC(=O)[C@H](Cc3c[nH]c4ccccc34)NC2=O)[C@@H](C)CC)NC(=O)[C@H](CC(=O)O)NC(=O)[C@H](CC(C)C)NC(=O)[C@H]([C@@H](C)CC)NC1=O` [Example 5] (H-H[Aib]DKSFSDE[Nle][dF]EILDKKAA[Aib]DFIEWLIKTK-NH2; lactam 4-8, 12-16, 24-28 (inferred); N-terminus and C-terminus assumed), for which the Emax in test [1] came out at 92.5%; in test [2], 104%.
Consider `CCCC[C@@H]1NC(=O)[C@H](CCC(=O)O)NC(=O)[C@@H](NC(=O)[C@H](CO)NC(=O)[C@H](Cc2ccccc2)NC(=O)[C@H](CO)NC(=O)CNC(=O)[C@H](Cc2nn[nH]n2)NC(=O)C(C)(C)C(=O)NCCc2c[nH]cn2)CCCCNC(=O)C[C@@H](C(=O)N[C@H](C(=O)N[C@@H](CC(C)C)C(=O)N[C@@H](CC(=O)O)C(=O)N[C@H]2CCC(=O)NCCCC[C@@H](C(=O)N[C@@H](CC(=O)O)C(=O)N[C@@H](Cc3ccccc3)C(=O)N[C@H](C(=O)N[C@@H](CC(N)=O)C(=O)N[C@@H](Cc3c[nH]c4ccccc34)C(=O)N[C@@H](CC(C)C)C(=O)N[C@H](C(=O)N[C@@H](CCC(N)=O)C(=O)N[C@H](C(=O)N[C@H]3CCC(=O)NCCCC[C@@H](C(N)=O)NC(=O)[C@H]([C@@H](C)O)NC(=O)[C@H]([C@@H](C)CC)NC3=O)[C@@H](C)O)[C@@H](C)CC)[C@@H](C)CC)NC(=O)C(C)(C)NC(=O)C(C)(C)NC(=O)[C@H](CCCCN)NC2=O)[C@@H](C)CC)NC(=O)[C@@H](Cc2ccccc2)NC1=O` [Example 16] ({Malonyl(2,2-Me2,histaminyl)}-[Ala(1H-tetrazol-5-yl)]GSFSKE[Nle][dF]DILDEK[Aib][Aib]KDFINWLIQTEITK-NH2; lactam 6-10, 14-18, 28-31; C-terminus assumed), for which the Emax was 94.1% in test [1] and 104% in test [2]. Moreover, the EC50 in test [1] was 0.631 nM; in test [2], 0.251 nM.
On to `C=CCOC(=O)NCCCC[C@@H]1NC(=O)[C@@H](NC(=O)[C@H](CC(=O)O)NC(=O)[C@H](CC(C)C)NC(=O)[C@@H](NC(=O)[C@@H]2CC(=O)NCCCC[C@H](NC(=O)[C@H](CO)NC(=O)[C@H](Cc3ccccc3)NC(=O)[C@H](CO)NC(=O)CNC(=O)[C@H](Cc3nn[nH]n3)NC(=O)C(C)(C)C(=O)NCCc3c[nH]cn3)C(=O)N[C@@H](CCC(=O)O)C(=O)N[C@@H](CCCC)C(=O)N[C@H](Cc3ccccc3)C(=O)N2)[C@@H](C)CC)CCC(=O)NCCCC[C@@H](C(=O)N[C@@H](CC(=O)O)C(=O)N[C@@H](Cc2ccccc2)C(=O)N[C@H](C(=O)N[C@@H](CC(N)=O)C(=O)N[C@@H](Cc2c[nH]c3ccccc23)C(=O)N[C@@H](CC(C)C)C(=O)N[C@H](C(=O)N[C@@H](CCC(N)=O)C(=O)N[C@H](C(=O)N[C@H]2CCC(=O)NCCCC[C@@H](C(N)=O)NC(=O)[C@H]([C@@H](C)O)NC(=O)[C@H]([C@@H](C)CC)NC2=O)[C@@H](C)O)[C@@H](C)CC)[C@@H](C)CC)NC(=O)[C@H](C)NC(=O)[C@H](C)NC1=O` [Example 23] ({Malonyl(2,2-Me2,histaminyl)}-[Ala(1H-tetrazol-5-yl)]GSFSKE[Nle][dF]DILDEK(Alloc)AAKDFINWLIQTEITK-NH2; lactam 6-10, 14-18, 28-31 (inferred); C-terminus assumed), for which the Emax in test [1] was 94.3%; in test [2] it was 102%. Also, the EC50 in test [1] is 0.794 nM; in test [2], 0.0251 nM.
The matching figures for `CCCC[C@@H]1NC(=O)[C@H](CCC(=O)O)NC(=O)[C@@H](NC(=O)[C@H](CO)NC(=O)[C@H](Cc2ccccc2)NC(=O)[C@H](CO)NC(=O)[C@@H](C)NC(=O)[C@H](Cc2nn[nH]n2)NC(=O)C(C)(C)C(=O)NCCc2c[nH]cn2)CCCCNC(=O)C[C@@H](C(=O)N[C@@](C)(CC(C)C)C(=O)N[C@@H](CC(C)C)C(=O)N[C@@H](CC(=O)O)C(=O)N[C@H]2CCC(=O)NCCCC[C@@H](C(=O)N[C@@H](CC(=O)O)C(=O)N[C@@H](Cc3ccccc3)C(=O)N[C@H](C(=O)N[C@@H](CC(N)=O)C(=O)N[C@@H](Cc3c[nH]c4ccccc34)C(=O)N[C@@H](CC(C)C)C(=O)N[C@H](C(=O)N[C@@H](CCC(N)=O)C(=O)N[C@H]3CCC(=O)NCCCC[C@@H](C(N)=O)NC(=O)[C@H]([C@@H](C)O)NC(=O)[C@H]([C@@H](C)CC)NC(=O)[C@H](CCCCN)NC3=O)[C@@H](C)CC)[C@@H](C)CC)NC(=O)[C@H](C)NC(=O)[C@H](C)NC(=O)[C@H](CCCCN)NC2=O)NC(=O)[C@@H](Cc2ccccc2)NC1=O` [Example 24] ({Malonyl(2,2-Me2,histaminyl)}-[Ala(1H-tetrazol-5-yl)][dA]SFSKE[Nle][dF]D[αMeL]LDEKAAKDFINWLIQEKITK-NH2; lactam 6-10, 14-18, 27-31 (inferred); C-terminus assumed): 96.8%, 103%, 0.2 nM and 0.00794 nM.
The corresponding values for `CCCC[C@@H]1NC(=O)[C@H](CCC(=O)O)NC(=O)[C@@H](NC(=O)[C@H](CO)NC(=O)[C@](C)(Cc2ccccc2F)NC(=O)[C@H](CO)NC(=O)[C@@H](C)NC(=O)[C@H](CC(=O)O)NC(=O)C(C)(C)C(=O)NCCc2c[nH]cn2)CCCCNC(=O)C[C@@H](C(=O)N[C@@](C)(CC(C)C)C(=O)N[C@@H](CC(C)C)C(=O)N[C@@H](CC(=O)O)C(=O)N[C@H]2CCC(=O)NCCCC[C@@H](C(=O)N[C@@H](CC(=O)O)C(=O)N[C@@H](Cc3ccccc3)C(=O)N[C@H](C(=O)N[C@@H](CC(N)=O)C(=O)N[C@@H](Cc3c[nH]c4ccccc34)C(=O)N[C@@H](CC(C)C)C(=O)N[C@H](C(=O)N[C@@H](CCC(N)=O)C(=O)N[C@H]3CCC(=O)NCCCC[C@@H](C(N)=O)NC(=O)[C@H]([C@@H](C)O)NC(=O)[C@H]([C@@H](C)CC)NC(=O)[C@H](CCCCN)NC3=O)[C@@H](C)CC)[C@@H](C)CC)NC(=O)[C@H](C)NC(=O)[C@H](C)NC(=O)[C@H](CCCCN)NC2=O)NC(=O)[C@@H](Cc2ccccc2)NC1=O` [Example 25] ({Malonyl(2,2-Me2,histaminyl)}-D[dA]S[αMePhe(2-F)]SKE[Nle][dF]D[αMeL]LDEKAAKDFINWLIQEKITK-NH2; lactam 6-10, 14-18, 27-31 (inferred); C-terminus assumed) are 97.6%, 103%, 0.0316 nM and 0.0251 nM.
With `CCCC[C@H](NC(=O)[C@H](CCC(=O)O)NC(=O)[C@@H]1CC(=O)NCCCC[C@H](NC(=O)[C@H](CCC(=O)O)NC(=O)C(C)(C)NC(=O)[C@@H](N)Cc2c[nH]cn2)C(=O)N[C@@H](CO)C(=O)N[C@@H](Cc2ccccc2)C(=O)N[C@@H](CO)C(=O)N1)C(=O)N[C@H](Cc1ccccc1)C(=O)N[C@H](C(=O)N[C@@](C)(CC(C)C)C(=O)N[C@@H](CC(C)C)C(=O)N[C@@H](CC(=O)O)C(=O)N[C@H]1CCC(=O)NCCCC[C@@H](C(=O)N[C@@H](CC(=O)O)C(=O)N[C@@H](Cc2ccccc2)C(=O)N[C@H](C(=O)N[C@H]2CCC(=O)NCCCC[C@@H](C(=O)N[C@H](C(=O)N[C@@H](CCCCN)C(N)=O)[C@@H](C)O)NC(=O)[C@H]([C@@H](C)CC)NC(=O)[C@H](CC(C)C)NC(=O)[C@H](Cc3c[nH]c4ccccc34)NC2=O)[C@@H](C)CC)NC(=O)[C@H](C)NC(=O)[C@H](C)NC(=O)[C@H](CCCCN)NC1=O)[C@@H](C)O` [Example 28] (H-H[Aib]EKSFSDE[Nle][dF]T[αMeL]LDEKAAKDFIEWLIKTK-NH2; lactam 4-8, 16-20, 24-28 (inferred); C-terminus assumed), the Emax in test [1] is 96%; in test [2], 99.6%. Also, the figures for the EC50 in test [1] and in test [2] were 0.0794 nM and 0.316 nM, respectively.
